Laboratory results published in patent US20240210412A1, “SULFONYL-TRIAZOLE COMPOUNDS USEFUL AS LIGANDS AND INHIBITORS OF PROSTAGLANDIN REDUCTASE 2” (University of Virginia Patent Foundation, priority 2021, published 2024).

What was measured:
PTGR2 [1] = molecular target: T1, PTGR2 (Homo sapiens, UniProt Q8N8N7); assay: in vitro gel-based chemical proteomics competition, RJS-1027 probe; type: binding; settings: inhibitor 0.5 μM, RJS-1027 1 μM, HEK293T soluble proteome
T1 construct: host or cells: HEK293T
Protocol: Cell pellets were lysed in PBS buffer (EDTA free) by sonicating 3 times for 1 second×20% amplitude. The lysate was fractionated by centrifuging at 100,000×g for 45 min at 4° C., separating membrane and soluble fractions. Only the soluble fraction was used for in vitro and in situ experiments. Protein concentrations were measured using the Bio-Rad DC protein assay, and fractions were diluted to a concentration of 2 mg/mL in PBS. For live cell treated samples, 50 μL aliquots of proteome were used for gel experiments. For in vitro experiments, 48 μL aliquots of cell lysate were used for each inhibitor before adding 1 μL of 50× inhibitor stock (1 μM final) and incubated for 30 minutes at 37° C., then 1 μL of 50×probe stock (1 μM final) was added and the lysate incubated for 30 minutes at 37° C. […] 30 μL of each sample were separated by SDSPAGE and analyzed by in-gel fluorescence scanning for the rhodamine azide tag. […]
FIG. 9A is an image of an in vitro gel-based chemical proteomics assay using RJS-1027 (1 μM) as a probe to measure competition of binding PTGR2 with an inhibitor (0.5 μM). […] Quantitative comparison of inhibitor competition with probe labeling normalized to the negative control HHS-0101 is shown in FIG. 9B. […] Quantitative comparison of RJG-2036 competition with probe labeling normalized to the negative control HHS-0101 is shown in FIG. 9D.

PTGR2 [2] = molecular target: T1, PTGR2; assay: gel-based ABPP, HHS-475 probe, HEK293T cells expressing recombinant PTGR2; type: cell-based; settings: 25 μM-0.1 μM, 2 h; HHS-475 25 μM 2 h; compared with AMC-0702, HHS-0701
Protocol: HEK293T cells at 30-50% confluency were transfected with 2.6 μg of FAH or PTGR2 plasmid DNA in a serum-free media/polyethyleneimine solution for 48 hrs. The cells were washed once with warm, sterile DPBS (1×, 5 mL), and then 10 mL of serum-free media (supplemented with 1% L-glutamine) containing either DMSO or SuTEx fragment (in DMSO) was added. After 2 hrs, the cells were treated with 100 μM of SuTEx alkyne probe (HHS-475, 10 μL of 1000× DMSO stock) and incubated for an additional 2 hrs. The media was aspirated and cells washed with cold PBS (5 mL) and harvested. Cells were spun at 500×g for 5 min at 4° C. and supernatant was removed. Pellets were resuspended in 1 mL of cold DPB S and spun at 1,400×g for 3 min at 4° C. and supernatant was removed. The cells were lysed in PBS by sonication and fractionated (100,000×g, 45 min, 4° C.). The soluble fraction was diluted to 1 mg/mL in PBS and 49 μL was used for analysis. […] The samples were analyzed by SDS-PAGE (30 μL) and imaged by in-gel fluorescence scanning.
Confirmatory studies were also performed on prostaglandin reductase 2 (PTGR2) because of its role in the reduction of the bioactive lipid, 15-keto-PGE2^[17]. […] The remaining fluorescent signal detected on PTGR2 Y100F mutant protein is likely due to probe labeling of additional tyrosine sites identified on wild-type protein.
To assess the PTGR2 inhibitory activity of AMC-0702 and AMC-0703, HEK293T cells expressing PTGR2 were pretreated with vehicle, HHS-0101 (25 μM), HHS-0701 (25 μM), AMC-0702 (25 μM-0.1 μM), or AMC-0703 (25 μM-0.1 μM) for 2 hours followed by HHS-475 probe labelling in live cells (25 μM, 2 hours). Cells were lysed and probe-modified PTGR2 in proteomes detected by copper-catalyzed azide-alkyne cycloaddition conjugation of rhodamine-azide, SDS-PAGE, and in-gel fluorescence scanning. Inhibitory activity of compounds is determined by reductions in fluorescent band intensity from HHS-475 probe labeling of proteins detected in proteomes. […]

[3] = molecular target: T2, recombinant prostaglandin reductase 2 (PTGR2) (Homo sapiens, UniProt Q8N8N7); assay: in situ gel-based chemical proteomics competition, RJS-1027 probe; type: cell-based; settings: RJS-1027 1 μM, normalized to PTGR2 WT, two biological replicates, read-out: 50% inhibitory concentration (IC50), competition with probe labeling
T2 construct: host or cells: HEK293T
Protocol: HEK293T cells were grown to 30-40% confluency and transiently transfected with wild type PTGR2 or Y100F PTGR2 mutant plasmid or DMSO by dissolving 20 μL of PEI (1 mg/mL) and 2.6 μg of plasmid in 0.6 mL of serum-free DMEM media. Transfected HEK293T cells were incubated at 37° C. with 5% CO2 and were harvested for in vitro experiments. For in situ experiments, cells were treated with either DMSO or inhibitors at a final concentration of 1 μM, or the indicated concentration, of inhibitors from a 1,000× stock in serum-free media. Cells were subsequently incubated at 37° C. with 5% CO2 for 2 hours, followed by treatment with DMSO or probe at a final concentration of 1 μM from a 1,000× stock in serum-free media. Cells were harvested and pelleted at 400×g for 5 min and the supernatant was decanted. […]
Cell pellets were lysed in PBS buffer (EDTA free) by sonicating 3 times for 1 second×20% amplitude. […] Protein concentrations were measured using the Bio-Rad DC protein assay, and fractions were diluted to a concentration of 2 mg/mL in PBS. […] 30 μL of each sample were separated by SDSPAGE and analyzed by in-gel fluorescence scanning for the rhodamine azide tag. […]
Anti-flag and GAPDH western blots are shown below the long gel and were performed separately. Quantitation of RJG-2036 competition with probe labeling normalized to the PTGR2 WT with RJS-1027 as a probe is shown in FIG. 10C.

T1 sequence (Q8N8N7 whole entry): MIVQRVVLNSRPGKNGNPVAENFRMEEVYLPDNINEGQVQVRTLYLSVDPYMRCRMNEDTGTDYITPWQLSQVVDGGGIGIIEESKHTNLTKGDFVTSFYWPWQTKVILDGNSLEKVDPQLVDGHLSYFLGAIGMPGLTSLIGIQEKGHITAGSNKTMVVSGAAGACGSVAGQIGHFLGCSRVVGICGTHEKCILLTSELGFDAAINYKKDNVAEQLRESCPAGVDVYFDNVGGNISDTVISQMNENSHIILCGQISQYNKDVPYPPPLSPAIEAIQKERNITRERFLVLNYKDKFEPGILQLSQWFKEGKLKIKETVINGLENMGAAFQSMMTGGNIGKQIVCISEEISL
T2 sequence (Q8N8N7 whole entry): as above

| SMILES | competition of probe binding to PTGR2 (PTGR2 [1]) | potency against PTGR2 (reduction of HHS-475 probe labeling) (PTGR2 [2]) | IC50 [3] [nM] |
| --- | --- | --- | --- |
| COc1ccccc1N1CCN(C(=O)c2ccc(S(=O)(=O)n3cnc(-c4cccnc4)n3)cc2)CC1 [RJG-1189, (4-(2-methoxyphenyl)piperazin-1-yl)(4-((3-(pyridin-3-yl)-1H-1,2,4-triazol-1-yl)sulfonyl)phenyl)methanone] | potent inhibitors | – | – |
| COc1ccccc1N1CCN(C(=O)c2ccc(S(=O)(=O)n3cncn3)cc2)CC1 [AMC-0703, (4-((1H-1,2,4-triazol-1-yl)sulfonyl)phenyl)(4-(2-methoxyphenyl)piperazin-1-yl)methanone] | potent inhibitors | highest potency against PTGR2 | – |
| COc1ccccc1N1CCN(C(=O)c2cccc(S(=O)(=O)n3cncn3)c2)CC1 [RJG-2036, (3-((1H-1,2,4-triazol-1-yl)sulfonyl)phenyl)(4-(2-methoxyphenyl)piperazin-1-yl)methanone] | – | – | 89.5 |
